Laboratory results taken from patent publication US20240245743A1, “USE OF CINNAMOMUM ZEYLANICUM ESSENTIAL OIL (EO) AS HUMAN MELANOMA CELLS DEATH INDUCER AND AS POSSIBLE ADJUVANT IN PHARMACOLOGICAL THERAPIES” (CONSIGLIO NAZIONALE DELLE RICERCHE, priority 2021, published 2024).

Columns and labels:
[1] = tested on: M14 cells; assay: Colony formation assay; format: cell-based, human
Protocol: Ten days after seeding, a solution of 2% methylene blue in 95% ethanol was added to the obtained monolayer and incubated for at least 30 minutes. The plates were then washed with ddH2O and the colonies (at least 50 cells) were counted. The results were expressed as a percentage of colonies formed with respect to the number of cells seeded. Cell survival rate was calculated as % compared to control cells.

[2] = tested on: advanced melanoma, untreated brain metastases, and other solid tumours; details: phase I study; cited from earlier work
[3] = tested on: melanoma; details: phase III study; cited from earlier work
[4] = rats; cited from earlier work
[5] = tested on: M14 cells; assay: Intracellular ROS analysis by FACS (H2DCF-DA); format: cell-based, human; details: EO 10 μg/ml for 24 hours; H2O2 5 mM
Protocol: The generation of ROS species (reactive oxygen species) was analysed by FACS, using the probe sensitive to the oxidant 2 ‘, 7’-dichlorodihydrofluorescein (H2DCF-DA). The C. zeylanicum EO was administered at a dose of 10 μg/ml for 24 hours. […] H2O2 at a concentration of 5 mM was used as a control for the generation of ROS.

[6] = features known in the art; cited from earlier work

**Q.** With `CC(=O)O[C@H]1C(=O)[C@@]2(C)[C@H]([C@H](OC(=O)c3ccccc3)[C@]3(O)C[C@H](OC(=O)[C@H](O)[C@@H](NC(=O)c4ccccc4)c4ccccc4)C(C)=C1C3(C)C)[C@]1(OC(C)=O)CO[C@@H]1C[C@@H]2O` [Taxol, Paclitaxel] as the compound, how does the “induction of cell death in M14 cells” value ([1]; 24 hours treatment, EO 10 μg/ml) read?
**A.** less than 10%

**Q.** For `CC(C)(C)c1nc(-c2cccc(NS(=O)(=O)c3c(F)cccc3F)c2F)c(-c2ccnc(N)n2)s1` [dabrafenib], which ORR [2] is on record?
**A.** 47%

**Q.** What about the “ORR (objective response rate)” value [3] of the same compound?
**A.** 53%

**Q.** What about the “median PFS (progression free survival)” value [3] of the same compound?
**A.** 5.1 months

**Q.** For `O=CC=Cc1ccccc1` [cinnamaldehyde], which “cell survival (colonies vs untreated control)” value ([1]; M14 cells, 24 hours treatment) is on record?
**A.** 64.3%

**Q.** With `C=CCc1ccc2c(c1)OCO2` [Safrole] as the compound, how does the carcinogenicity [4] read?
**A.** weak carcinogenicity

**Q.** With `OO` [H2O2, hydrogen peroxide] as the compound, how does the “oxidative stress (intracellular ROS) in M14 cells compared with PBMCs” value [5] read?
**A.** greater oxidative stress

**Q.** With `O=c1ccc2ccccc2o1` [Coumarin] as the compound, how does the “toxicity (liver, kidney) / general safety” value [6] read?
**A.** can cause liver and kidney damage

**Q.** Which “survival of M14 cells compared to control” value ([1]; EO 10 μg/ml, TAM 0, 1 μM, 24 hours) does the source give for `CC/C(=C(\c1ccccc1)c1ccc(OCCN(C)C)cc1)c1ccccc1` [TAM, Tamoxifen] here?
**A.** no significant differences in survival compared to control
